Calls of active or inactive are those of the source. No cut-off for these calls is given here.

Usually EC50 stands for the concentration needed to bring the measured effect to its halfway point. High values mean weaker potency, low ones greater potency.

Assay [1] deals with PC-9. Nature of the assay: Antiproliferative activity against EGFR-deficient human PC9 cells. The class given is functional, cell-based.
In assay [2] the test system is PC-9. Nature of the assay: Antiproliferative activity against growth-resistant human PC9 cells expressing EGFR E746_A750/T790M mutant. The format is functional, cell-based.
Assay [3] concerns the target T1, Tyrosine-protein kinase JAK3 (Homo sapiens) (UniProt P52333).
T1 sequence (whole entry): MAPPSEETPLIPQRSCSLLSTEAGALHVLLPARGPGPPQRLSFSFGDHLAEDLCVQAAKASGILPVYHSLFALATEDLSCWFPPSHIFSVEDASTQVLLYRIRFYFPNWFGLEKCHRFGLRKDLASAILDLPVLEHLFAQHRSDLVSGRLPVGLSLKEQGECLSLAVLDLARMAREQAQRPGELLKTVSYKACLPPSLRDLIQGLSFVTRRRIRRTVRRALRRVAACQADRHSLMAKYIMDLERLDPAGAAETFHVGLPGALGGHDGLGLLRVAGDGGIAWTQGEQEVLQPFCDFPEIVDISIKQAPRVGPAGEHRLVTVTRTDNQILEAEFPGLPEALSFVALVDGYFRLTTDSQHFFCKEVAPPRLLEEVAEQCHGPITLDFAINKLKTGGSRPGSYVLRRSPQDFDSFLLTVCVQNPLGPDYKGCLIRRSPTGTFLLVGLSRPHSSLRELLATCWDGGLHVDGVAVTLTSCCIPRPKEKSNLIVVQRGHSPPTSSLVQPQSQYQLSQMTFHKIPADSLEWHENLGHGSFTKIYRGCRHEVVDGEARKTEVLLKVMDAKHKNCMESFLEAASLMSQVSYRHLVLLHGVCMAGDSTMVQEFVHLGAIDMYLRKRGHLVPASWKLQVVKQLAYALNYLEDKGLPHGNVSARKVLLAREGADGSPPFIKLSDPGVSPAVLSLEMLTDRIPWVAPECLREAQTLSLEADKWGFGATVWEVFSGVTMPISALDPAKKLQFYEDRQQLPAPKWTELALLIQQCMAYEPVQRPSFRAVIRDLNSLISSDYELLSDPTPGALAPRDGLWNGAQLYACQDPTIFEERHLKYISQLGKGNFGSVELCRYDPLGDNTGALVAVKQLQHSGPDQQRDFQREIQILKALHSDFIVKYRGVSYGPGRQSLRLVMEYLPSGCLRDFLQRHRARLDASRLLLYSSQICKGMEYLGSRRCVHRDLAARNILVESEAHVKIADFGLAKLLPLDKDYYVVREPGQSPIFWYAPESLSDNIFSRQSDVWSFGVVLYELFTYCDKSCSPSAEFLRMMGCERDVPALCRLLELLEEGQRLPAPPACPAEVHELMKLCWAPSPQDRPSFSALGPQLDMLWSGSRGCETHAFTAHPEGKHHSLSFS
As to the kind of experiment: Inhibition of Jak3 transfected with TEL fusion in mouse BA/F3 cells. The settings on record: BaF3. The class given is cell-based.

The target in assay [4] is Tyrosine-protein kinase Blk (Homo sapiens) (UniProt P51451). As to the kind of experiment: Inhibition of Blk transfected with TEL fusion in mouse BA/F3 cells. The format is cell-based. The settings on record: BaF3.
Sequence of Tyrosine-protein kinase Blk (Homo sapiens) (P51451 2-505 limits assumed): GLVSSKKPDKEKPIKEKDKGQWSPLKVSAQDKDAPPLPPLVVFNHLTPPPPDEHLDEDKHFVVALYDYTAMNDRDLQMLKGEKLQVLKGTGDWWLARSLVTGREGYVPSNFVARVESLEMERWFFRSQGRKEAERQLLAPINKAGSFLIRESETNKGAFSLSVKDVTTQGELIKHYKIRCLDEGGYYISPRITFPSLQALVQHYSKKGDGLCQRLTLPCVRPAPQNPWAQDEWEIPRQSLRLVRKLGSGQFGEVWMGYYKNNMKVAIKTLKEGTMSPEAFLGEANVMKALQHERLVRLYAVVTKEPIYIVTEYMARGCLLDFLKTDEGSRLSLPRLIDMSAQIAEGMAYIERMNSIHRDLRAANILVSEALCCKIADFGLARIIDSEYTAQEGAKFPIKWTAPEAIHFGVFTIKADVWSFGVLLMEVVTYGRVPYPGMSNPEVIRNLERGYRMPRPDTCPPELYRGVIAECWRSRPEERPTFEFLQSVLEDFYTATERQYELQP
For assay [5], the target named is T2, Cytoplasmic tyrosine-protein kinase BMX (Homo sapiens) (UniProt P51813).
T2 sequence (whole entry): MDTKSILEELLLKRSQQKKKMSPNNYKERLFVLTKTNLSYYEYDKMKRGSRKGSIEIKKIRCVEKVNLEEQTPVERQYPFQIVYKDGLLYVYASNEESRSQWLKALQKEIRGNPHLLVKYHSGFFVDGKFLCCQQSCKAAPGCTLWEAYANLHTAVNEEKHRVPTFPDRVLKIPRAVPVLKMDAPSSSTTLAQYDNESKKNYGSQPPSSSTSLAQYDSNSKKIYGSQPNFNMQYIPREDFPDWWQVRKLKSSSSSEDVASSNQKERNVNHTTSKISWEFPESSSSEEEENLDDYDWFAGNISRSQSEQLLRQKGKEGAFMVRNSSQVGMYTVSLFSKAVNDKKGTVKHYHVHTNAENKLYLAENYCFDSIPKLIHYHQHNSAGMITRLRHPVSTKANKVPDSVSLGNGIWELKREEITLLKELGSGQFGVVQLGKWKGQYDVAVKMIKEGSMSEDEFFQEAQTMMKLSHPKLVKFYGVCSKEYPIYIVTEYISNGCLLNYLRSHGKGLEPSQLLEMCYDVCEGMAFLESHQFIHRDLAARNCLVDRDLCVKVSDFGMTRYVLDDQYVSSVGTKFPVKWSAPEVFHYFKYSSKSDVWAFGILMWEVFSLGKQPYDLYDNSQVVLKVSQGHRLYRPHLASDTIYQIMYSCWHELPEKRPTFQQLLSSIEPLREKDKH
Nature of the assay: Inhibition of Bmx transfected with TEL fusion in mouse BA/F3 cells. The format is cell-based. The conditions noted are these: BaF3.

A short description of assay [6]: Antiproliferative activity against mouse BA/F3 cells transfected with EGFR L858R/T790M mutant. The conditions noted are these: BaF3. The format is functional, cell-based.
Assay [7] can be described thus: Antiproliferative activity against mouse BA/F3 cells transfected with EGFR L858R/T790M/C797S mutant. The class given is functional, cell-based. The conditions noted are these: BaF3.
Assay [8] can be described thus: Antiproliferative activity against mouse BA/F3 cells transfected with EGFR E746_A750_del/T790M mutant. The format is functional, cell-based. The settings on record: BaF3.
Assay [9] is described as follows: Antiproliferative activity against mouse BA/F3 cells transfected with EGFR E746_A750_del/T790M/C797S mutant. The class given is functional, cell-based. The conditions noted are these: BaF3.
Assay [10] in a line: Antiproliferative activity against mouse BA/F3 cells transfected with EGFR E746_A750/T790M mutant. The format is functional, cell-based. The conditions noted are these: BaF3.

As for `C=CC(=O)N1CCCC(N(C)c2nc(Nc3ccc(N(C)C(=O)CC)cc3)nc3[nH]cnc23)C1` (centres undefined), the EC50 with PC-9 [1] was determined as 900 nM; in the assay with PC-9 [2], 6000 nM.

In turn, `C=CC(=O)Nc1cccc(Oc2nc(Nc3ccc(CCN4CCN(C)CC4)cc3)ncc2Cl)c1` yielded an EC50 in the assay on PC-9 [2] of 8 nM.

With `C=CC(=O)Nc1ccc(Oc2ncnc3[nH]cc(-c4cnc5ccccc5c4)c23)cc1`, the EC50 in the assay with PC-9 [1] and in the assay with PC-9 [2] was 10000 nM throughout.

For the molecule `C=CC(=O)N1CCCC(Nc2nc(Nc3ccc(N4CCN(C)CC4)cc3)nc3[nH]cnc23)C1` (centres undefined), the EC50 in the assay on PC-9 [1] came out at 1000 nM; with PC-9 [2], 5000 nM.

As to `C=CC(=O)Nc1cccc(Oc2ccnc(Nc3ccc(N4CCN(C)CC4)cc3)n2)c1`, the values for the EC50 with PC-9 [1] and in the assay on PC-9 [2] were 80 nM and over 1000 nM, respectively.

`C=CC(=O)Nc1cccc(Oc2nc(Nc3ccc(F)cc3OC)ncc2Cl)c1`: it took 800 nM to reach a half-maximal effect in the assay with PC-9 [2] (EC50).

For the molecule `C=CC(=O)Nc1cccc(Oc2nc(Nc3ccc(-c4ccncc4)cc3OC)ncc2Cl)c1`, the EC50 with PC-9 [2] amounted to 900 nM.

Turning to `C=CC(=O)Nc1cccc(Oc2nc(Nc3ccc(C(=O)NC4CCN(C)CC4)cc3OC)ncc2Cl)c1`, the EC50 in the assay with PC-9 [1] came out at 500 nM; in the assay with PC-9 [2], 800 nM.

For the molecule `C=CC(=O)Nc1cc(F)cc(Oc2nc(Nc3ccc(N4CCN(C)CC4)cc3OC)ncc2Cl)c1`, a half-maximal response with PC-9 [2] (EC50) required 20 nM.

In the assay with PC-9 [2], `C=CC(=O)Nc1cccc(Oc2nc(Nc3ccc(C4=CCN(C)CC4)cc3OC)ncc2Cl)c1` had an EC50 of 200 nM.

Molecule `C=CC(=O)Nc1cccc(Oc2nc(Nc3ccc(N4CCN(C)CC4)cc3C(F)(F)F)ncc2Cl)c1` displayed an EC50 in the assay with PC-9 [2] of 90 nM.

With `C=CC(=O)Nc1cccc(Oc2nc(Nc3ccc(N4CCOCC4)cc3OC)ncc2Cl)c1`, in the assay with PC-9 [2], a half-maximal effect (EC50) was put at 150 nM.

As for `C=CC(=O)Nc1cccc(Oc2nc(Nc3ccc(C(=O)N4CCN(C)CC4)cc3)ncc2Cl)c1`, the EC50 in the assay on PC-9 [1] and with PC-9 [2] was 800 nM in each case.

In the case of `C=CC(=O)Nc1cccc(Oc2nc(Nc3ccc(C(=O)NC4CCN(C)CC4)cc3)ncc2Cl)c1`, the results for the EC50 in the assay on PC-9 [1] and in the assay with PC-9 [2] were 800 nM and 1000 nM, respectively.

For `C=CC(=O)Nc1ccc(Oc2ncnc3[nH]cc(-c4cccnc4)c23)cc1`, the EC50 in the assay on PC-9 [1] and in the assay with PC-9 [2] was 6000 nM throughout.

Take `C=CC(=O)Nc1cccc(Sc2nc(Nc3ccc(N4CCN(C)CC4)cc3OC)ncc2Cl)c1`: the EC50 with PC-9 [1] and with PC-9 [2] was 20 nM throughout.

Turning to `C=CC(=O)Nc1cccc(Oc2nc(Nc3ccc(CN4CCN(C)CC4)cc3C(F)(F)F)ncc2Cl)c1`, in the assay with PC-9 [2], the EC50 turned out to be 420 nM.

Molecule `C=CC(=O)Nc1cccc(Oc2nc(Nc3ccc(C(=O)NCCN4CCOCC4)cc3OC)ncc2Cl)c1` returned an EC50 in the assay with PC-9 [2] of 500 nM.

Regarding `C=CC(=O)Nc1cccc(Oc2nc(Nc3ccc(N4CCN(C)CC4)cc3)ncc2Cl)c1`, the figures for the EC50 in the assay with PC-9 [1] and in the assay on PC-9 [2] were 15 nM and 3 nM, respectively.

For `C=CC(=O)Nc1cccc(Oc2nc(Nc3ccc(C4CCN(C)CC4)cc3OC)ncc2Cl)c1`, the EC50 in the assay with PC-9 [1] was 100 nM; with PC-9 [2] it was 40 nM.

As for `C=CC(=O)Nc1cccc(Oc2nc(Nc3ccc(C4CCCN(C)C4)cc3OC)ncc2Cl)c1` (centres undefined), the EC50 in the assay with PC-9 [1] was 100 nM; in the assay with PC-9 [2], 200 nM.

Regarding `C=CC(=O)Nc1cccc(Oc2nc(Nc3ccc(N4CCN(C)CC4)cc3OC)ncc2Cl)c1Cl`, the EC50 with PC-9 [1] and in the assay on PC-9 [2] was over 1000 nM in each case.

The molecule `C=CC(=O)Nc1cccc(Oc2nc(Nc3ccc(N4CCN(C)CC4)cc3OC)ncc2Cl)c1F` yielded an EC50 in the assay on PC-9 [2] of 31 nM.

Regarding `C=CC(=O)Nc1cccc(Oc2nc(Nc3ccc(N4CCN(C)CC4)cc3)ncc2Br)c1`, the EC50 with PC-9 [1] was found to be 800 nM; in the assay with PC-9 [2] it was 900 nM.

`C=CC(=O)Nc1cccc(Oc2nc(Nc3ccc(N4CCC(N5CCN(C)CC5)CC4)cc3OC)ncc2Cl)c1`: the EC50 was 80 nM in the assay with PC-9 [1] and 100 nM in the assay with PC-9 [2].

Regarding `C=CC(=O)Nc1cccc(Oc2nc(Nc3ccc(N4CCN(C)CC4)cc3OC)ncc2Cl)c1`, the EC50 was 36 nM in the assay with PC-9 [1]; 14 nM in the assay on PC-9 [2]; 8 nM in assay [6]; over 3300 nM in assay [7]; 2 nM in [8]; over 3300 nM in assay [9]. In addition, the midpoint of the response in [10], the EC50, lay at 1290 nM. The inhibition result in [3], in [4] and in assay [5] was “Active” in each case.

In the case of `C=CC(=O)Nc1cccc(Oc2nc(Nc3ccc(N4CCN(C)CC4)cc3)nc3[nH]cnc23)c1`, the EC50 in the assay with PC-9 [1] is 300 nM; with PC-9 [2], 600 nM.

For the molecule `C=CC(=O)Nc1cccc(Oc2nc(Nc3ccc(CC(=O)N4CCN(C)CC4)cc3)ncc2Cl)c1`, in the assay with PC-9 [2], the response was half-maximal at 50 nM (EC50).

For `C=CC(=O)Nc1cccc(Oc2ncnc3[nH]cc(-c4ccc(OC)cc4)c23)c1`, the EC50 with PC-9 [1] and in the assay with PC-9 [2] was 6000 nM each time.

In the case of `C=CC(=O)Nc1cccc(Oc2nc(Nc3ccc(C(=O)N4CCN(C)CC4)cc3OC)ncc2Cl)c1`, the EC50 in the assay with PC-9 [1] and in the assay with PC-9 [2] was over 1000 nM throughout.

On to `C=CC(=O)Nc1cccc(Oc2nc(Nc3ccc(CN4CCN(C)CC4)cc3)ncc2Cl)c1`, for which a half-maximal response in the assay with PC-9 [2] (EC50) required 30 nM.

For the molecule `C=CC(=O)Nc1cccc(Nc2nc(Nc3ccc(N4CCN(C)CC4)cc3OC)ncc2Cl)c1`, the EC50 is 40 nM in the assay on PC-9 [1] and 20 nM in the assay on PC-9 [2].

As for `C=CC(=O)N1CCCC(Nc2nc(Nc3ccc(N(C)C(=O)CC)cc3)nc3[nH]cnc23)C1` (centres undefined), the EC50 in the assay with PC-9 [1] turned out to be 7000 nM; in the assay on PC-9 [2] it was 10000 nM.

In the case of `C=CC(=O)N1CCCC(Nc2nc(Nc3ccc(C(=O)N4CCN(C)CC4)cc3)nc3[nH]cnc23)C1` (centres undefined), the EC50 in the assay on PC-9 [1] and with PC-9 [2] was 10000 nM in each case.

For the molecule `C=CC(=O)Nc1cccc(Oc2ncnc3[nH]cc(-c4cccnc4)c23)c1`, the EC50 in the assay with PC-9 [1] and in the assay on PC-9 [2] was 500 nM throughout.

Regarding `C=CC(=O)Nc1cccc(Oc2nc(Nc3ccc(N4CCN(C)CC4)cc3)ncc2C(F)(F)F)c1`, the values for the EC50 in the assay on PC-9 [1] and in the assay on PC-9 [2] were 700 nM and 800 nM, respectively.

With `C=CC(=O)Nc1cccc(Sc2nc(Nc3ccc(N4CCN(C)CC4)cc3)ncc2Cl)c1`, the EC50 with PC-9 [1] was determined as 6 nM; in the assay on PC-9 [2], 8 nM.

Regarding `C=CC(=O)Nc1cccc(Oc2nc(Nc3ccc(N4CCC(O)CC4)cc3OC)ncc2Cl)c1`, the EC50 was determined as 200 nM in the assay with PC-9 [1] and 800 nM in the assay on PC-9 [2].

As for `C=CC(=O)Nc1cccc(Oc2[nH]cnc3ncc(-c4cnc5ccccc5c4)c2-3)c1`, the EC50 in the assay with PC-9 [1] came to 6000 nM; in the assay with PC-9 [2], 8000 nM.

Values taken from ChEMBL document CHEMBL1641501, “Discovery of selective irreversible inhibitors for EGFR-T790M” (Bioorg Med Chem Lett, 2011).
